Molecules are shown by their SMILES.

Assay [1] concerns the target T1, Alpha-1D adrenergic receptor (Rattus norvegicus, UniProt P23944).
T1 sequence (P23944 whole entry): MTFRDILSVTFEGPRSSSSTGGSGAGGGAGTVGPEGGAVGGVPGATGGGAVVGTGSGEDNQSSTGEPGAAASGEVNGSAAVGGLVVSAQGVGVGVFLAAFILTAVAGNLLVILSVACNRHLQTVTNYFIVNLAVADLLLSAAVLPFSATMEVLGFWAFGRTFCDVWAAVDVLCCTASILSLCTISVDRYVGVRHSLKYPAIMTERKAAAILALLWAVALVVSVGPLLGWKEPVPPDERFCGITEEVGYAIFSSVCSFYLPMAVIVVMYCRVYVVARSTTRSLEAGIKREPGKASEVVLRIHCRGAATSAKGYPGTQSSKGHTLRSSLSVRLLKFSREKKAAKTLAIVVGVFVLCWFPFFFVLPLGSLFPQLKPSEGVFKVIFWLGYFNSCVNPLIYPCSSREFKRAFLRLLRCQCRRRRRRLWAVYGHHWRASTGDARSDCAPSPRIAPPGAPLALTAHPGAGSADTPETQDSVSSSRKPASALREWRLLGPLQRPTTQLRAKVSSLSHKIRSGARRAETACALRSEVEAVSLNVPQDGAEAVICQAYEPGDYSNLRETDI
Put plainly: In vitro functional activity at Alpha-1D adrenergic receptor in rat aorta. Type of assay: tissue-based. Particulars: read-out: pA2 (converted).

The target of assay [2] is T1, Alpha-1D adrenergic receptor. Briefly: In vitro functional activity at Alpha-1D receptor in rat aorta. The class given is tissue-based. To be noted: read-out: pA2 (converted).

As to `COc1ccccc1N1CCN(CCn2c(=O)[nH]c3scc(-c4ccccc4)c3c2=O)CC1` [A-119637], in assay [1], the Kb is 0.0251 nM.
Turning to `COc1ccccc1N1CCN(CCn2c(=O)[nH]c3scc(-c4cccc(C)c4)c3c2=O)CC1` [A-123189], in assay [2], the Kb was 0.02 nM.

Source of the values: ChEMBL document CHEMBL1134245, “Two novel and potent 3-[(o-methoxyphenyl)piperazinylethyl]-5-phenylthien” (Bioorg Med Chem Lett, 2001).
